{
  "source": "patent US9550742B2",
  "about": "“11-OXO-10,11-dihydrodibenzo[B,F][1,4]thiazepine S-oxide derivatives and their use as dopamine D2 receptor antagonists” (The United States of America, as Represented by the …, priority 2013, dated 2017)",
  "key": {"D2 DAR": {"biological_target": "T1, D2 DAR (Homo sapiens, UniProt P14416)", "T1 construct": "expressed in transfected cells; host or cells: HEK293 T-REx, Tet-inducible, with chimeric G-protein Gqi5", "T1 sequence (P14416 whole entry)": "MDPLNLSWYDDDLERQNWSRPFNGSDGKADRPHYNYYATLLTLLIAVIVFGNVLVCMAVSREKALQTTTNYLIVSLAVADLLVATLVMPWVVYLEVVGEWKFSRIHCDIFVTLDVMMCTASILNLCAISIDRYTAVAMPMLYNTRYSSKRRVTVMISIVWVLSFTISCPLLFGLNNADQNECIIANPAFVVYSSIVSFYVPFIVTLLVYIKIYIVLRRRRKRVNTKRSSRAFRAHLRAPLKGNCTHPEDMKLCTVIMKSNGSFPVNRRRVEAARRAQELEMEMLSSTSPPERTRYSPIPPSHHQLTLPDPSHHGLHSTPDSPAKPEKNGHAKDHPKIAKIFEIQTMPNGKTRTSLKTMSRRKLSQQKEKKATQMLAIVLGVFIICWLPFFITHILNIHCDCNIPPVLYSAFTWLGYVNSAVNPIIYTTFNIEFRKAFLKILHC", "test": "D2 Ca^2+ screen assay (calcium accumulation, HEK293 T-REx with Gqi5)", "type": "cell-based", "how_it_was_run": "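HEK293 T-REx cells co-expressing Gqi5 were loaded with Fluo-8 AM dye in HBSS + 10 mM HEPES with quencher for 45–90 min in the dark at ambient temperature. 23 nL compound or dopamine control was pinned in, and cytosolic Ca2+ fluorescence was recorded on FDSS in non-stimulated mode for 180 s to detect agonism.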"}, "[1]": {"biological_target": "D3 dopamine receptor (DAR) (Homo sapiens, UniProt P35462)", "test": "D3 beta-arrestin functional assay (PathHunter, CHO)", "type": "cell-based", "conditions": "dose response curve; read-out: D3 β-arrestin assay AC50", "excerpt": "A CHO cell line was engineered to overexpress D3 dopamine receptor (DAR) and fused with a small 42-amino acid fragment of β-gal called ProLink™. In addition, these cells stably express a fusion protein of β-arrestin and a larger N-terminal deletion mutant of β-galactosidase (“enzyme acceptor”). When DAR is activated by dopamine, it stimulates binding of β-arrestin to ProLink-tagged DARs, and the two complementary parts of β-galactosidase form a functional enzyme. When substrate (PathHunter® Detection reagent) is added, βgalactosidase hydrolyzes it and generates a chemiluminescent signal.\nFor the 1,536-well assay, D3 PathHunter® β-arrestin cells were seeded at 2,100 cells/well in 3 μL/well media (DiscoveRx Plating Reagent 2) with MultiDrop Combi dispenser (Thermo Scientific, Logan, Utah) onto white tissue culture treated 1,536-well Aurora plates (Brooks Automation, Chelmsford, Mass.) and allowed to attach overnight at 37° C., 5% CO2. Next, 23 nL/well of compound solutions in DMSO were added with a pintool transfer (Kalypsis, San Diego, Calif.). The cells were stimulated by compounds for 90 minutes at 37° C., 5% CO2, after which 1.5 μL/well of DiscoveRx detection reagent was added with BioRAPTR FRD dispenser. […] The plates were incubated at ambient temperature for 1 h, and the luminescent signal was read on ViewLux plate reader (PerkinElmer, Waltham, Mass.)."}, "D1 [2]": {"biological_target": "T2, D1 (Homo sapiens, UniProt P21728)", "T2 sequence (P21728 whole entry)": "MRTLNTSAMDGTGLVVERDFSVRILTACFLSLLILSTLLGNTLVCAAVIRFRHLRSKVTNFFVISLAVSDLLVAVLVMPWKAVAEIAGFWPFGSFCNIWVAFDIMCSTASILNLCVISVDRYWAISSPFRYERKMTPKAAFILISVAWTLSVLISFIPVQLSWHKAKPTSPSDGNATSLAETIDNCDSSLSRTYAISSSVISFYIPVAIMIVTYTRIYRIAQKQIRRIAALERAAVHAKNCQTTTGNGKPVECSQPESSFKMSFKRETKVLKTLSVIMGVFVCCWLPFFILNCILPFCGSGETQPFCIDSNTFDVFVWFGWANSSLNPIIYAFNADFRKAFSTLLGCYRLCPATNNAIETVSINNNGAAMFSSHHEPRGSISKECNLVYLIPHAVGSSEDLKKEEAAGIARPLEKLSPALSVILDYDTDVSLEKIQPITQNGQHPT", "test": "D1 binding assay (FIG. 2B)"}, "5-HT1B": {"biological_target": "5-HT1B (Homo sapiens, UniProt P28222)", "sequence (P28222 whole entry, species assumed)": "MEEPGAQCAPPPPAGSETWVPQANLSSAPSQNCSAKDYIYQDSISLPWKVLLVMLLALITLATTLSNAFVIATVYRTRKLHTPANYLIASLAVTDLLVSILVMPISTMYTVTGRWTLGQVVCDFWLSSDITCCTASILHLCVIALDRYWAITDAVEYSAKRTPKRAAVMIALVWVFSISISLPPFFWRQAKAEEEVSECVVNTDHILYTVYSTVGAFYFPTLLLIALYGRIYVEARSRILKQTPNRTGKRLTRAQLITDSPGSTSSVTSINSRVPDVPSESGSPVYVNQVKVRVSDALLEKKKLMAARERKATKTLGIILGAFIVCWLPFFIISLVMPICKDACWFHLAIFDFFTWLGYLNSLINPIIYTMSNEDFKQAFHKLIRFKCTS", "test": "Affinity profile panel: 5-HT1B", "conditions": "inhibition of binding"}, "5-HT1D": {"biological_target": "5-HT1D (Homo sapiens, UniProt P28221)", "test": "Affinity profile panel: 5-HT1D", "conditions": "inhibition of binding"}, "5-HT2A": {"biological_target": "5-HT2A (Homo sapiens, UniProt P28223)", "sequence (P28223 whole entry, species assumed)": "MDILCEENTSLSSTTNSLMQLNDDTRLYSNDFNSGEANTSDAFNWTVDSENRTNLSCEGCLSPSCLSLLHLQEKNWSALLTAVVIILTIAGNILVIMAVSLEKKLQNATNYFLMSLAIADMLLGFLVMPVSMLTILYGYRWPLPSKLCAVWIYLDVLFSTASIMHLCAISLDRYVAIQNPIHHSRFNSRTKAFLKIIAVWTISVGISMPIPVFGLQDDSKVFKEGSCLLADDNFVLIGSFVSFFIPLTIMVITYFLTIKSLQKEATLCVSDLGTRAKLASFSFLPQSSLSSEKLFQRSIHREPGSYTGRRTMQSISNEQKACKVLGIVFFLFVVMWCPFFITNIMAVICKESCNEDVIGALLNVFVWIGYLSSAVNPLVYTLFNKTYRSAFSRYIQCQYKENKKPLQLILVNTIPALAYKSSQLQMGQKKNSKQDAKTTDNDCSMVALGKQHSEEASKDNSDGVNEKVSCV", "test": "Affinity profile panel: 5-HT2A", "conditions": "inhibition of binding"}, "5-HT2B": {"biological_target": "5-HT2B (Homo sapiens, UniProt P41595)", "test": "Affinity profile panel: 5-HT2B", "conditions": "inhibition of binding", "from_the_text": "(§1) Antipsychotic drugs (depending on the specific drug) typically interact with a range of serotonergic, adrenergic, histaminergic, and muscarinic receptors."}, "5-HT2C": {"biological_target": "5-HT2C (Homo sapiens, UniProt P28335)", "test": "Affinity profile panel: 5-HT2C", "conditions": "inhibition of binding", "from_the_text": "as §1"}, "5-HT3": {"biological_target": "5-HT3 (Homo sapiens, UniProt P46098)", "test": "Affinity profile panel: 5-HT3", "conditions": "inhibition of binding"}, "5-HT6": {"biological_target": "5-HT6 (Homo sapiens, UniProt P50406)", "test": "Affinity profile panel: 5-HT6", "conditions": "inhibition of binding"}, "Alpha1A": {"biological_target": "Alpha1A (Homo sapiens, UniProt P35348)", "test": "Affinity profile panel: Alpha1A", "conditions": "inhibition of binding"}, "Alpha1B": {"biological_target": "Alpha1B (Homo sapiens, UniProt P35368)", "sequence (P35368 whole entry)": "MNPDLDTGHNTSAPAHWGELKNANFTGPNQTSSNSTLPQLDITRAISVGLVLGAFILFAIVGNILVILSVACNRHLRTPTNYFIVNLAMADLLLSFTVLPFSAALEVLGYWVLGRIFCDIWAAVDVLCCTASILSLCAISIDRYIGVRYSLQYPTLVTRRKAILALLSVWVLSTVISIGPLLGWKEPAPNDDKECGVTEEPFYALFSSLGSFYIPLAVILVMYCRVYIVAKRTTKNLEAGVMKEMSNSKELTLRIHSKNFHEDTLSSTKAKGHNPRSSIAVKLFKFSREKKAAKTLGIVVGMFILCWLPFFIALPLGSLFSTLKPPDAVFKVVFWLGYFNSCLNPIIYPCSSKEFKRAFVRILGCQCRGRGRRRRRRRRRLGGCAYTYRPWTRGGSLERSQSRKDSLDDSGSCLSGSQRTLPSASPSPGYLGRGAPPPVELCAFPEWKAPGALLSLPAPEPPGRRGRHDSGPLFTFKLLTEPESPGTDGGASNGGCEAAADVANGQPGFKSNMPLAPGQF", "test": "Affinity profile panel: Alpha1B", "conditions": "inhibition of binding"}, "Alpha2A": {"biological_target": "Alpha2A (Homo sapiens, UniProt P08913)", "test": "Affinity profile panel: Alpha2A", "conditions": "inhibition of binding"}, "Beta2": {"biological_target": "Beta2 (Homo sapiens, UniProt P07550)", "sequence (P07550 whole entry)": "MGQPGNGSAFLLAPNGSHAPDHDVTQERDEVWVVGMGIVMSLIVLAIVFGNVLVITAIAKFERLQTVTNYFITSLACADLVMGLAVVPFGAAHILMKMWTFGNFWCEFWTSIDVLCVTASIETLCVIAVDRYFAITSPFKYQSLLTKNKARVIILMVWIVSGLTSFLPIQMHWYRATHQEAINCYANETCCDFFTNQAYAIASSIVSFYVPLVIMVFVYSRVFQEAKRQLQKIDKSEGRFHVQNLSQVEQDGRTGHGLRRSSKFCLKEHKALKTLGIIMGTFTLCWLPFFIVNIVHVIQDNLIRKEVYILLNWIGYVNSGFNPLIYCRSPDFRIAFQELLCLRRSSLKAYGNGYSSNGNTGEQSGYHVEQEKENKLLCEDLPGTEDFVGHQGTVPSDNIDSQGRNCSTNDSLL", "test": "Affinity profile panel: Beta2", "conditions": "inhibition of binding"}, "Beta3": {"biological_target": "Beta3 (Homo sapiens, UniProt P13945)", "test": "Affinity profile panel: Beta3", "conditions": "inhibition of binding"}, "GABAA": {"system": "GABAA", "test": "Affinity profile panel: GABAA", "conditions": "inhibition of binding"}, "D1 [3]": {"biological_target": "T2, D1", "test": "Affinity profile panel: D1", "conditions": "inhibition of binding"}, "D3": {"biological_target": "D3 (Homo sapiens, UniProt P35462)", "test": "Affinity profile panel: D3", "conditions": "inhibition of binding"}, "D4": {"biological_target": "D4 (Homo sapiens, UniProt P21917)", "test": "Affinity profile panel: D4", "conditions": "inhibition of binding"}, "D5": {"biological_target": "D5 (Homo sapiens, UniProt P21918)", "sequence (P21918 whole entry)": "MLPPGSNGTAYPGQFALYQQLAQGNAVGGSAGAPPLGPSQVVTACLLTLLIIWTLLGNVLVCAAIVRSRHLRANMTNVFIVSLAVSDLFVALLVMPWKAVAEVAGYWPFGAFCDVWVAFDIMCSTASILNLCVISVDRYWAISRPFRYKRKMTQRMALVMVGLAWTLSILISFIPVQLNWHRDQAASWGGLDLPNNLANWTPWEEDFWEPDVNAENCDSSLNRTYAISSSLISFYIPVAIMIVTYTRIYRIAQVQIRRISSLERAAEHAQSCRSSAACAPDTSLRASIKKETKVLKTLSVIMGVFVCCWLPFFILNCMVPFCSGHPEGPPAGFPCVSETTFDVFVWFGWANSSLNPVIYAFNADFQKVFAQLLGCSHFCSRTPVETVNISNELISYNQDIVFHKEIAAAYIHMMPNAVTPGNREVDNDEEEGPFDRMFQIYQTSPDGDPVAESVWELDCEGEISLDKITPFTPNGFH", "test": "Affinity profile panel: D5", "conditions": "inhibition of binding"}, "DOR": {"biological_target": "DOR (Homo sapiens, UniProt P41143)", "sequence (P41143 whole entry)": "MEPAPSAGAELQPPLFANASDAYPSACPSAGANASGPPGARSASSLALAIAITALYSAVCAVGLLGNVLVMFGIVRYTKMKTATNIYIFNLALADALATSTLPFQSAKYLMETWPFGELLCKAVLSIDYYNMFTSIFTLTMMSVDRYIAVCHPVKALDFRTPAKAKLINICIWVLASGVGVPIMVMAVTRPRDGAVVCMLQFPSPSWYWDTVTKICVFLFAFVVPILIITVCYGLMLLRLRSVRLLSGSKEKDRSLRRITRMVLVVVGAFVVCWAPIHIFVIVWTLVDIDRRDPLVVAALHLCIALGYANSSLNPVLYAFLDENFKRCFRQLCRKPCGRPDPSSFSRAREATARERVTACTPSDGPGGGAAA", "test": "Affinity profile panel: DOR", "conditions": "inhibition of binding"}, "H1": {"biological_target": "H1 (Homo sapiens, UniProt P35367)", "test": "Affinity profile panel: H1", "conditions": "inhibition of binding"}, "H2": {"biological_target": "H2 (Homo sapiens, UniProt P25021)", "test": "Affinity profile panel: H2", "conditions": "inhibition of binding"}, "KOR": {"biological_target": "KOR (Homo sapiens, UniProt P41145)", "test": "Affinity profile panel: KOR", "conditions": "inhibition of binding"}, "M2": {"biological_target": "M2 (Homo sapiens, UniProt P08172)", "test": "Affinity profile panel: M2", "conditions": "inhibition of binding"}, "M4": {"biological_target": "M4 (Homo sapiens, UniProt P08173)", "test": "Affinity profile panel: M4", "conditions": "inhibition of binding"}, "M5": {"biological_target": "M5 (Homo sapiens, UniProt P08912)", "sequence (P08912 whole entry)": "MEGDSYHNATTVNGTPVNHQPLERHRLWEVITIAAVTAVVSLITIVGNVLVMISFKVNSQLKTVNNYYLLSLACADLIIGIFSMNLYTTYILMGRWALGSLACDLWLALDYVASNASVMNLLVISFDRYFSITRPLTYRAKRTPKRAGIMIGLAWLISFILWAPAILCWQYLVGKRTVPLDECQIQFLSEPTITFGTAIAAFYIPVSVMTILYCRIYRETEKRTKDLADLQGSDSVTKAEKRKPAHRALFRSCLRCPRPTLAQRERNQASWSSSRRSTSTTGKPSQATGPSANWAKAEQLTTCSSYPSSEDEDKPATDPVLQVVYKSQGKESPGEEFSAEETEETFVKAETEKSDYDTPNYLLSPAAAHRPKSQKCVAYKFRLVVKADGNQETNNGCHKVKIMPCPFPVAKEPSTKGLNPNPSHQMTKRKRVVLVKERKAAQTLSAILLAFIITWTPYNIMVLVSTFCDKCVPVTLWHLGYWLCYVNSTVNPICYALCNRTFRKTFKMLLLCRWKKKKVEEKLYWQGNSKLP", "test": "Affinity profile panel: M5", "conditions": "inhibition of binding"}, "MOR": {"biological_target": "MOR (Homo sapiens, UniProt P35372)", "test": "Affinity profile panel: MOR", "conditions": "inhibition of binding"}, "NET": {"biological_target": "NET (Homo sapiens, UniProt P23975)", "sequence (P23975 whole entry)": "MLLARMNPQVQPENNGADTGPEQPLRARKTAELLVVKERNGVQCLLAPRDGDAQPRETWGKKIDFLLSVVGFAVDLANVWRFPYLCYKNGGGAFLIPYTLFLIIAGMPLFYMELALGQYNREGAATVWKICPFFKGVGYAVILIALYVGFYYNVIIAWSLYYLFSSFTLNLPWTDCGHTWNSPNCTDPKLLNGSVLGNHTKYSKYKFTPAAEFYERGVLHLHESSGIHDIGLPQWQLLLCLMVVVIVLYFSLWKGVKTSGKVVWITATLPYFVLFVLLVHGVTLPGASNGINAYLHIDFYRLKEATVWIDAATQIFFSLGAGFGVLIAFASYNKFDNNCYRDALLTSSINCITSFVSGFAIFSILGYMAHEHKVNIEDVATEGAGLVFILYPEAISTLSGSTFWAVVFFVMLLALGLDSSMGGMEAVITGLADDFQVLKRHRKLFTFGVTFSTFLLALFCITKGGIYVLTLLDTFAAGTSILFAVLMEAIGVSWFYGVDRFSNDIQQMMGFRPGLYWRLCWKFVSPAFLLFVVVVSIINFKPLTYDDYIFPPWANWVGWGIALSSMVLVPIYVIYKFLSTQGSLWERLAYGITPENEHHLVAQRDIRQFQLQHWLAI", "test": "Affinity profile panel: NET", "conditions": "inhibition of binding", "from_the_text": "as §1"}, "PBR": {"biological_target": "PBR (Homo sapiens, UniProt P30536)", "sequence (P30536 whole entry, species assumed)": "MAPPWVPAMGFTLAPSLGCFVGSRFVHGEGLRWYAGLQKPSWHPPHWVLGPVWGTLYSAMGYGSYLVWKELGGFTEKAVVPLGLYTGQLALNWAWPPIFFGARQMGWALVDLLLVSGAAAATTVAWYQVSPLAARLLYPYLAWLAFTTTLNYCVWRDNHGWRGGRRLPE", "test": "Affinity profile panel: PBR", "conditions": "inhibition of binding"}, "SERT": {"biological_target": "SERT (Homo sapiens, UniProt P31645)", "test": "Affinity profile panel: SERT", "conditions": "inhibition of binding", "from_the_text": "as §1"}},
  "note": "Like-named read-outs stand apart in the source and are kept apart here.",
  "data": [
    {"smiles": "CN1C(=O)c2ccccc2[S@+]([O-])c2ccc(C(=O)NCCc3cccs3)cc21", "note": "[Compound 55, 10-Methyl-11-oxo-N-(2-(thiophen-2-yl)ethyl)-10,11-dihydrodibenzo[b,f][1,4]thiazepine-8-carboxamide 5-(S)-oxide]", "values": [
      {"measurement": "AC50", "setting": "D2 DAR; dopamine D2 calcium release assay of Example 1, read-out: Ca^2+ AC50", "value": "< 1", "unit": "µM"},
      {"measurement": "AC50", "setting": "D2 DAR; dose response curve, read-out: D2 Ca^2+ assay AC50", "value": 0.07, "unit": "µM"},
      {"measurement": "AC50", "setting": "[1]", "value": 12.9, "unit": "µM"},
      {"measurement": "Ki", "setting": "D1 [2]", "value": 67.1, "unit": "µM"},
      {"measurement": "Inhibition (%) 5-HT1B", "setting": "5-HT1B", "value": 24.0, "unit": "%"},
      {"measurement": "Inhibition (%) 5-HT1D", "setting": "5-HT1D", "value": 13.1, "unit": "%"},
      {"measurement": "Inhibition (%) 5-HT2A", "setting": "5-HT2A", "value": 46.3, "unit": "%"},
      {"measurement": "Inhibition (%) 5-HT2B", "setting": "5-HT2B", "value": 40.1, "unit": "%"},
      {"measurement": "Inhibition (%) 5-HT2C", "setting": "5-HT2C", "value": 64.5, "unit": "%"},
      {"measurement": "Inhibition (%) 5-HT3", "setting": "5-HT3", "value": 8.5, "unit": "%"},
      {"measurement": "Inhibition (%) 5-HT6", "setting": "5-HT6", "value": "−15.6", "unit": "%"},
      {"measurement": "Inhibition (%) Alpha1A", "setting": "Alpha1A", "value": "−13.4", "unit": "%"},
      {"measurement": "Inhibition (%) Alpha1B", "setting": "Alpha1B", "value": "−0.2", "unit": "%"},
      {"measurement": "Inhibition (%) Alpha2A", "setting": "Alpha2A", "value": 7.3, "unit": "%"},
      {"measurement": "Inhibition (%) Beta2", "setting": "Beta2", "value": "−13.2", "unit": "%"},
      {"measurement": "Inhibition (%) Beta3", "setting": "Beta3", "value": 6.6, "unit": "%"},
      {"measurement": "Inhibition (%) GABAA", "setting": "GABAA", "value": 10.6, "unit": "%"},
      {"measurement": "Inhibition (%) D1", "setting": "D1 [3]", "value": "−6.8", "unit": "%"},
      {"measurement": "Inhibition (%) D3", "setting": "D3", "value": 59.1, "unit": "%"},
      {"measurement": "Inhibition (%) D4", "setting": "D4", "value": 32.2, "unit": "%"},
      {"measurement": "Inhibition (%) D5", "setting": "D5", "value": "−8.5", "unit": "%"},
      {"measurement": "Inhibition (%) DOR", "setting": "DOR", "value": "−23.6", "unit": "%"},
      {"measurement": "Inhibition (%) H1", "setting": "H1", "value": 41.6, "unit": "%"},
      {"measurement": "Inhibition (%) H2", "setting": "H2", "value": "−9.2", "unit": "%"},
      {"measurement": "Inhibition (%) KOR", "setting": "KOR", "value": 18.2, "unit": "%"},
      {"measurement": "Inhibition (%) M2", "setting": "M2", "value": "−1.7", "unit": "%"},
      {"measurement": "Inhibition (%) M4", "setting": "M4", "value": 2.4, "unit": "%"},
      {"measurement": "Inhibition (%) M5", "setting": "M5", "value": "−6.5", "unit": "%"},
      {"measurement": "Inhibition (%) MOR", "setting": "MOR", "value": 5.7, "unit": "%"},
      {"measurement": "Inhibition (%) NET", "setting": "NET", "value": 8.9, "unit": "%"},
      {"measurement": "Inhibition (%) PBR", "setting": "PBR", "value": 31, "unit": "%"},
      {"measurement": "Inhibition (%) SERT", "setting": "SERT", "value": 4.8, "unit": "%"}
    ]}
  ]
}
